Assays:
[1] = Formation of inclusion complexes with HPCD (UV spectroscopy, Hill linearization); assay type: physicochemical; conditions: pH 6.2, 22 °C; for EE, % / LC, %: 0.01 M
Protocol: To optimize the system composition, similar experiments were carried out on the formation of EG and apiol inclusion complexes with HPCD (Figure S1). […] According to these changes, the dissociation constants of the EG–HPCD and apiol–HPCD complexes (Figure S2) were calculated by Hill’s equation (Table 1). […] The physicochemical parameters of the interaction of APAB and terpenoids (X) with CD were studied by determining the concentration of substances in the aqueous fraction ([APAB] + [APAB-MCD]) according to the calibration dependence (Figure 1C) for systems with a constant amount of the essential oil component X and the concentration gradient MCD (Table 1). Theta (θ) is a fraction of the bound substance X:θ = [X-MCD]/([X-MCD] + [X]) and was calculated based on the dependence of the absorption intensity X on the MCD concentration in the system in the form of a sigmoidal Hill curve with subsequent linearization (Section 3, Section 3.3 and Section 3.4).
The molar excess of CD varied from 0.04 to 10). Further, the complexes were incubated for 1 h at 37 °C and then centrifuged ([…], 15 min, Eppendorf tubes) to separate the insoluble fractions. Complexes were studied by UV and FTIR spectroscopy.
UV spectra of solutions (point 3.3.1) were recorded on the AmerSham Biosciences UltraSpec 2100 pro device (USA) three times in the range of 200–400 nm in a quartz cell Hellma 100–QS with an optical path of 1 cm. Background spectrum (5 mM sodium phosphate buffer (pH 6.2) with 50% EtOH) was subtracted as a blank.
(1) Calculation of the dissociation constants X–MCD and X–HPCD, where X is a “guest” compound, considering the equilibrium: Xaq + n MCDaq ↔ X·nMCDaq, where Kd = [MCDaq]^n · [Xaq]/[X·nMCDaq].
First, fitting of the curves of change of the analytical signal ξ (peak intensity or peak position) versus concentration of the MCD or HPCD or was carried out using the Hill equations: (1) ξ = ξ∞ · [MCD]^n/([MCD]^n + K^n), where ξ∞—horizontal asymptote; (2) ξ = ξ0 + (ξ∞–ξ0) · [MCD]^n/([MCD]^n + K^n). Second, calculation n and Kd values by Hill’s linearization in n-binding site model: lg (θ/(1 – θ)) = n · lg [L] – lg Kd, where θ = |(ξ – ξ0)/(ξ∞ − ξ0)|is a fraction of the bound substance. N in Hill equation—number of drug molecules per CD torus.

Gram-negative bacteria = system: Gram-negative bacteria; parameters: method as in PMID 19540744; conditions: cited from earlier work
E. coli = system: E. coli; parameters: method as in PMID 20214546; conditions: EG in the form of a complex with CD; cited from earlier work
[2] = parameters: method as in PMID 20214546; conditions: host:guest molar ratio of 1:1; cited from earlier work
[3] = Solid-phase FTIR microscopy of the EG–HPCD complex (distribution of EE); assay type: physicochemical; conditions: EG–HPCD complex in solid form
Excerpt: To level the overlap of bond fluctuations in water molecules and the effect of hydration, the spectra of the EG–HPCD complex in solid form were registered as complementary materials (Figure S6). There are characteristic peaks of EG, which were quenched in the aqueous phase, C–Carom and C=C of the ethylene group. In the solid phase, we observed peaks corresponding to the stretching oscillations of CH2, CH3 groups (2900–3000 cm^−^1) and O-H (3200–3500 cm^−^1) without solvent contribution. […] EG was effectively (EE > 70%) included in two-thirds of the sample by quantity, in the remaining part EE exceeded 25–35%.
ATR-FTIR spectra of samples’ solutions (point 3.3.1) were recorded using a Bruker Tensor 27 spectrometer equipped with a liquid nitrogen cooled MCT (mercury cadmium telluride) detector. Samples were placed in a thermostatic cell BioATR-II with ZnSe ATR element (Bruker, Ettlingen, Germany). The IR spectrometer was merged with a constant flow of N2 (NiGen HF-1, Clint, Italy). FTIR spectra were acquired from 900 to 3000 cm^−1 with 1 cm^−1 spectral resolution. For each spectrum, 50–70 scans were accumulated at 20 kHz scanning speed and averaged. ATR-FTIR spectra of solid samples placed on KBr glass were recorded using a Bruker Lumos II IR microscope in the region from 700 to 4000 cm^−1 with 1 cm^−1 spectral resolution with scanning in the area on average 1 × 1 microns. […]

[4] = parameters: method as in doi:10.1016/j.foodres.2009.06.006; conditions: complex with β-form of CD; cited from earlier work

SMILES | EE, % [1] | LC, % [1] | n [1] | reduction of the MIC of antibiotics by EG as an adjuvant (Gram-negative bacteria; Gram-negative bacteria, highest values for tetracycline and vancomycin) | concentration at which EG forms defects in the membranes of bacteria (Gram-negative bacteria; suggested) | concentration already active in growth inhibition (E. coli) | initial amount of EG included in CD [2] | mass fraction of EG in the sample [2] | EE in the remaining part of the sample ([3]; remaining part) | EE in two-thirds of the sample ([3]; two-thirds of the sample by quantity) | half-dissociation period [4]
C=CCc1cc(OC)c2c(c1OC)OCO2 [Apiol] | 7 ± 1% | 9 ± 1% | 1.56 ± 0.25 |  |  |  |  |  |  |  | 
C=CCc1ccc(O)c(OC)c1 [Eugenol, 4-allyl-2-methoxyphenol] | 56 ± 7% | 9 ± 1% | 1.2 ± 0.1 | 5–1000 times | 1 mM | 0.5 mg/mL | ~92% | about 58% | 25–35% | > 70% | 3 h
